# Measurements: patent US6218438A, “Copolymer compositions for treating viral infections” (Supratek Pharma, Inc., priority 1999, dated 2001)
# Columns and labels:
# [1] = molecular target: T1, HIV-1 reverse transcriptase (p51/p66 RT), RDDP activity (Human immunodeficiency virus type 1 group M subtype B, UniProt P03366); assay: Inhibition of RNA dependent DNA polymerase activity of RT (RT RDDP); type: biochemical
# T1 construct: 10 ng of p51/p66 heterodimeric RT per assay were used
# Method: (§1) BBNH and Fe(III)-BBNH complex at various concentrations were examined for the ability to inhibit RNA dependent and DNA dependent DNA polymerase activities as well as RNAse H activity of HIV-1 reverse transcriptase (RT RDDP, RT DDDP, and RT RNAse H, respectively). To analyze RT RDDP and RT DDDP the following reaction mixture (100 μl total volume) was used: 50 mM Tris-HCl (pH 7.8), 60 mM KCl, 10 mM MgCl2, 10 ng of p51/p66 RT, 0.1-0.5 units of template/primer, and 0.5-25 μM [^3 H]dNTP. Aliquots of the test compounds dissolved in DMSO were added to the reaction mixtures, incubated for 10-20 min. at 37° C. and than quenched with 500 μl of cold 20 mM sodium pyrophosphate in 10% dichloroacetic acid. After 10 min. on ice, the samples were filtered on Whatman 934-AH glass fiber filters and washed with 10% dichloroacetic acid and ethanol, and the radioactivity was determined by liquid scintillation analysis. To analyze RT RNAse H the following reaction mixture (50 μl total volume) was used: 5OmM Tris-HCl (pH 8.0), 60 mM KCl, 8 mM MgCl2, and variable amounts of ([^3 H]rG)-poly(dC). Generally, 10 ng of p51/p66 heterodimeric RT per assay were used. Aliquots of the test compounds dissolved in DMSO were added to the reaction mixtures, incubated for 20 min. at 37° C. and than quenched by placing the tubes on ice followed by the addition of 100 μl of cold 7% perchloric acid. After 10 min. on ice, the samples were centrifuged at 12,000 g for 15 min. 100 μl of the supernatants were carefully removed, and the radioactivity was determined by liquid scintillation analysis.
# [2] = molecular target: T2, HIV-1 reverse transcriptase (p51/p66 RT), DDDP activity (Human immunodeficiency virus type 1 group M subtype B, UniProt P03366); assay: Inhibition of DNA dependent DNA polymerase activity of RT (RT DDDP); type: biochemical
# T2 construct: 10 ng of p51/p66 heterodimeric RT per assay were used
# Method: as §1
# [3] = molecular target: T3, HIV-1 reverse transcriptase (p51/p66 RT), RNAse H activity (Human immunodeficiency virus type 1 group M subtype B, UniProt P03366); assay: Inhibition of RNAse H activity of RT; type: biochemical
# T3 construct: 10 ng of p51/p66 heterodimeric RT per assay were used
# Method: as §1
# [4] = Cytotoxic activity against uninfected MT2 cells (XTT assay); type: cell-based, human; details: human, 4 days at 37° C., in DMSO
# Method: BBNH and Fe(III)-BBNH complex at various concentrations were examined for cytotoxic activity against uninfected MT2 cells. Aliquots of a solution of the compounds in dimethyl sulfoxide were added to the MT2 cells (2×10^5 cells/ml) in RPMI medium containing 10% fetal bovine serum to provide defined final concentrations of test compound. The cells and test compounds were cultured for 4 days at 37° C., in the presence of 5% CO2 and then cytotoxic effect of the compounds was analyzed by using the standard XTT assay. The CC50 calculated from the results were 10±0.5 μM for BBNH and more than 1000 μM for Fe(III)-BBNH.
# [5] = tested on: HIV-1 infection of MT2 cells; assay: Inhibition of HIV-1 infection of uninfected MT2 cells; type: cell-based; details: Human immunodeficiency virus 1, compound in DMSO, 30 min before HIV
# Method: BBNH and Fe(III)-BBNH complex at various concentrations were examined for the ability to inhibit HIV-1 infection of uninfected MT2 cells. Aliquots of a solution of the compounds in dimethyl sulfoxide were added to uninfected MT2 cells (2×10^5 cells/ml) in RPMI medium containing 10% fetal bovine serum to provide defined final concentrations of test compound. The cells and test compounds were incubated for 30 minutes at 37° C., then inoculated with a suspension of HIV virions. The cells, test compounds and HIV were incubated for 18 h at 37° C., then the cells were collected by centrifugation, washed, and resuspended in RPMI medium containing 10% fetal bovine serum and containing the same concentration of test compound as initially employed. The cells were then cultured at 37° C. (with culture medium changes as required). HIV infection was assessed by microscopic examination of HIV-induced cytopathicity (syncytium) and/or by analysis of HIV p24 antigen levels in the culture supernatants.
# HIV IN (integrase) = HIV IN (integrase) (Human immunodeficiency virus type 1 group M subtype B, UniProt P03366); assay: Inhibition of DNA-binding activity of HIV integrase; type: biochemical; details: in vitro
# cells = assay: Cytotoxicity (general statement); type: cell-based
# HIV-1 RT = HIV-1 RT (Human immunodeficiency virus type 1 BH10, UniProt P03366); details: RDDP, RNase H, and DDDP; Borkow et al. 1997; cited from earlier work
# [6] = tested on: HIV-1 replication in cells; details: Borkow et al. 1997; cited from earlier work
structure (smiles),measurement,setting,value
"CC(C)(C)c1ccc(C(=O)NN=Cc2c(O)ccc3ccccc23)cc1 [BBNH, N-(4-t-butylbenzoyl)-2-hydroxy-1-naphthaldehyde hydrazone, reference compound]",IC50,[1],1900 ± 100 nM
same,IC50,[2],12.5 ± 5 µM
same,IC50,[3]; 10 min. preincubation,3.5 ± 0.8 µM
same,IC50,[3]; No preincubation,> 50 µM
same,preincubation needed for maximal inhibition of RT RNase H,"[3]; in vitro, preincubation of the enzyme with BBNH",10 to 15 min
same,CC50 at 96 h,[4],10 ± 0.5 µM
same,IC50,[5],1500 ± 500 nM
same,IC50,HIV IN (integrase),~5 µM
same,preincubation needed for maximal inhibition of IN,HIV IN (integrase); preincubation of the enzyme with BBNH,10 to 15 min
same,cytotoxicity,cells,cytotoxic
same,inhibition of all three enzymatic activities of HIV-1 RT in vitro,HIV-1 RT,good inhibitor of all three enzymatic activities of HIV-1 RT in vitro
same,inhibition of replication of HIV-1 in infected cells,[6],inhibits replication of HIV-1 in infected cells
